Reference: PubChem BioAssay AID2060626 (Molecular Pharmacology Branch, DTP, NCI, 2025)

Tested on: 168753-222-R-J1-PDC complex spheroid viability
Experiment: Anticancer human tumor 168753-222-R-J1-PDC patient-derived bladder carcinoma cell line growth inhibition [CLK]
Settings: for IC50: curve of first compound; for viability, T/C: stronger effect = lower value; active = viability on the fitted dose curve at most 10% of control; inactive = the rest
Outline: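 Patient-derived tumor cells grown as complex spheroids with HUVEC endothelial cells and mesenchymal stem cells, treated with drug combinations. Concentrations descend in half-log steps from near clinical Cmax, or from 10 microM if Cmax unknown.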

[1] = second compound 0.0316 µM, first compound 0.0316 µM
[2] = second compound 0.0316 µM, first compound 0.1 µM
[3] = second compound 0.0316 µM, first compound 0.316 µM
[4] = second compound 0.0316 µM, first compound 1 µM
[5] = second compound 0.0316 µM, first compound 3.16 µM
[6] = second compound 0.0316 µM, first compound 10 µM
[7] = second compound 0.1 µM, first compound 0.0316 µM
[8] = second compound 0.1 µM, first compound 0.1 µM
[9] = second compound 0.1 µM, first compound 0.316 µM
[10] = second compound 0.1 µM, first compound 1 µM
[11] = second compound 0.1 µM, first compound 3.16 µM
[12] = second compound 0.1 µM, first compound 10 µM
[13] = second compound 0.316 µM, first compound 0.0316 µM
[14] = second compound 0.316 µM, first compound 0.1 µM
[15] = second compound 0.316 µM, first compound 0.316 µM
[16] = second compound 0.316 µM, first compound 1 µM
[17] = second compound 0.316 µM, first compound 3.16 µM
[18] = second compound 0.316 µM, first compound 10 µM
[19] = second compound 1 µM, first compound 0.0316 µM
[20] = second compound 1 µM, first compound 0.1 µM
[21] = second compound 1 µM, first compound 0.316 µM
[22] = second compound 1 µM, first compound 1 µM
[23] = second compound 1 µM, first compound 3.16 µM
[24] = second compound 1 µM, first compound 10 µM
[25] = second compound 3.16 µM, first compound 0.0316 µM
[26] = second compound 3.16 µM, first compound 0.1 µM
[27] = second compound 3.16 µM, first compound 0.316 µM
[28] = second compound 3.16 µM, first compound 1 µM
[29] = second compound 3.16 µM, first compound 3.16 µM
[30] = second compound 3.16 µM, first compound 10 µM
[31] = second compound 10 µM, first compound 0.0316 µM
[32] = second compound 10 µM, first compound 0.1 µM
[33] = second compound 10 µM, first compound 0.316 µM
[34] = second compound 10 µM, first compound 1 µM
[35] = second compound 10 µM, first compound 3.16 µM
[36] = second compound 10 µM, first compound 10 µM
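Note: viability measured after seven days of drug exposure.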
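Throughout, for viability, T/C: luminescence signal used as surrogate for viable cell amount; 100% = DMSO vehicle control wells.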

COC1C=CCC(C)C(C)S(=O)(=O)NC(=O)c2ccc3c(c2)N(CC2CCC21)CC1(CCCc2cc(Cl)ccc21)CO3 (centres undefined) + CN1CCN(c2cc(C(=O)Nc3cc4cc(-c5cnn(C)c5)ccc4cn3)ccn2)CC1
active: viability, T/C [16] 8.91% | viability, T/C [17] 9.07% | viability, T/C [18] 3.48% | viability, T/C [19] 0.33% | viability, T/C [20] 3.47% | viability, T/C [21] 0.21% | viability, T/C [22] 0.82% | viability, T/C [23] 2.3% | viability, T/C [24] 1.79% | viability, T/C [25] 0.17% | viability, T/C [26] 0.15% | viability, T/C [27] 3.67% | viability, T/C [28] 0.12% | viability, T/C [29] 0.15% | viability, T/C [30] 0.59% | viability, T/C [31] 0.4% | viability, T/C [32] 0.21% | viability, T/C [33] 2.52% | viability, T/C [34] 0.21% | viability, T/C [35] 0.23% | viability, T/C [36] 1.62%
936 nM: IC50 (second compound 0.0316 µM)
inactive: viability, T/C [1] 77.2% | viability, T/C [2] 101% | viability, T/C [3] 68.9% | viability, T/C [4] 48.4% | viability, T/C [5] 27.6% | viability, T/C [6] 14.2% | viability, T/C [7] 67.5% | viability, T/C [8] 58.4% | viability, T/C [9] 43.9% | viability, T/C [10] 21.8% | viability, T/C [11] 18% | viability, T/C [12] 12.6% | viability, T/C [13] 17.1% | viability, T/C [14] 12.4% | viability, T/C [15] 13.3%
191 nM: IC50 (second compound 0.1 µM)
< 31.6 nM: IC50 (second compound 0.316 µM) | IC50 (second compound 1 µM) | IC50 (second compound 3.16 µM) | IC50 (second compound 10 µM)

CC1COCCN1c1cc(C2(S(C)(=N)=O)CC2)nc(-c2ccnc3[nH]ccc23)n1 (centres undefined) + CN1CCN(c2cc(C(=O)Nc3cc4cc(-c5cnn(C)c5)ccc4cn3)ccn2)CC1
active: viability, T/C [14] 9.28% | viability, T/C [15] 9% | viability, T/C [16] 7.71% | viability, T/C [17] 7.38% | viability, T/C [18] 4.64% | viability, T/C [19] 0.24% | viability, T/C [20] 0.3% | viability, T/C [21] 0.2% | viability, T/C [22] 0.19% | viability, T/C [23] 0.18% | viability, T/C [24] 0.82% | viability, T/C [25] 0.19% | viability, T/C [26] 1.51% | viability, T/C [27] 1.3% | viability, T/C [28] 0.18% | viability, T/C [29] 0.26% | viability, T/C [30] 1.69% | viability, T/C [31] 0.23% | viability, T/C [32] 0.28% | viability, T/C [33] 1.49% | viability, T/C [34] 0.34% | viability, T/C [35] 0.56% | viability, T/C [36] 1.29%
inactive: viability, T/C [1] 47.2% | viability, T/C [2] 74.3% | viability, T/C [3] 67.3% | viability, T/C [4] 89.2% | viability, T/C [5] 29.4% | viability, T/C [6] 26.9% | viability, T/C [7] 61.5% | viability, T/C [8] 53.8% | viability, T/C [9] 22% | viability, T/C [10] 30.5% | viability, T/C [11] 15.8% | viability, T/C [12] 15.1% | viability, T/C [13] 10.6%
< 31.6 nM: IC50 (second compound 0.316 µM) | IC50 (second compound 1 µM) | IC50 (second compound 3.16 µM) | IC50 (second compound 10 µM)
115 nM: IC50 (second compound 0.1 µM)
1750 nM: IC50 (second compound 0.0316 µM)
